From patent US11512053B2, “Arginine methyltransferase inhibitors and uses thereof” (priority 2013, dated 2022) come the findings set out here.

The target in this test is full-length human PRMT6 (Flag- and His-tagged) (Homo sapiens, UniProt Q96LA8). The experiment in a line: PRMT6 Biochemical Assay (3H-SAM Flashplate, peptide substrate). Conditions: single experiment or average of multiple experiments; read-out: Biochemical IC50 PRMT6. An outline of the steps: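 Flag/His-tagged full-length human PRMT6 (1 nM) preincubated with compound 30 min at room temperature in Bicine pH 7.6 buffer, then reaction started with 3H-SAM 200 nM plus unlabeled SAM 250 nM and biotinylated H4 36-50 peptide (K44me1) 75 nM; 2% DMSO. Quenched with 400 uM cold SAM; labeled peptide captured on streptavidin Flashplate, counted; % inhibition vs DMSO and 1 mM SAH controls fit by 3- or 4-parameter curve.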
full-length human PRMT6 (Flag- and His-tagged), sequence (Q96LA8 with tags, fused parts or gaps): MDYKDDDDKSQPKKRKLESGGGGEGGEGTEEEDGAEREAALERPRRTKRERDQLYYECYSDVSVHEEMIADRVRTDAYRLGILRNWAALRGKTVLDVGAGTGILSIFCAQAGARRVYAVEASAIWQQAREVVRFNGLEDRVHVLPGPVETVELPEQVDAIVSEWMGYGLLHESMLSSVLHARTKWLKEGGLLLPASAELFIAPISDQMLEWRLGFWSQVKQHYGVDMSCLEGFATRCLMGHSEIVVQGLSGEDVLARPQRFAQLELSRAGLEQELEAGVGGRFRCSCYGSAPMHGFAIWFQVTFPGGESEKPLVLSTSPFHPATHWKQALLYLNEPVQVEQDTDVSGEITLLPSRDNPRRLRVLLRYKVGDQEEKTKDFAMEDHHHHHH

`CNCCN(C)Cc1c[nH]nc1C#Cc1ccccc1` [Compound 3]: the IC50 came to 20 nM.
